From patent US20130324606A1, “Ester Derivatives of Bimatoprost Compositions and Methods” (ALLERGAN, INC., priority 2011, published 2013)

How the values were obtained:
[1] = test system: human hair dermal papilla cells, HHDPC; assay: Cellular dielectric spectroscopy (CDS) in dermal papilla cells; type: cell-based
Protocol: Cellular dielectric spectroscopy (CDS) was conducted in an assay of dermal papilla cells (i.e., human hair dermal papilla cells, HHDPC) with bimatoprost and Cmpds IVc and IVb. As known in the art, CDS is a real-time, non-invasive, label-free, high-throughput, cell-based assay which measures electrical cell impedance. Without wishing to be bound by any theory, it is believed that GPCR activation induces changes in cell morphology, cell-cell interaction, and cell adherence which manifest as a change in cell impedance.

C57Black/6J mice = assay: Piliation (hair regrowth) studies in mice; type: in vivo; conditions: 0.03%, topical QD 14 days, vehicle 50% propylene glycol, 30% ethanol, 20% water
Protocol: C57Black/6J, 7-week old female mice (n=10) were employed in piliation studies. Dorsal hair was shaved (area ˜2 cm×4 cm). Dosing of active agent was once per day (QD) by topical administration for 14 days. Observations were conducted for 42-days to determine onset of new hair growth and day of hair growth completion. Compounds were formulated as either a) 50% propylene glycol, 30% ethanol, 20% water, or b) the formulation of Formulation A described above. The experiments reported for FIGS. 4A-4B, 5A-5B, 6A-6B, 8A-8B, and 9A-9B were conducted using a vehicle with formulation of 50% propylene glycol, 30% ethanol, 20% water. The experiments reported for FIGS. 7A-7B were conducted using a vehicle of Formulation A described above.
For each of FIGS. 4A, 5A, 6A, 7A, 8A and 9A, the histograms depict the day of onset of hair growth. For each of FIGS. 4B, 5B, 6B, 7B, 8B and 9B, the histograms depict the day achieving full hair growth.

mouse skin = assay: Pathology assessment of mouse hair regrowth model; type: in vivo, mice; conditions: histology, 0.03% active, vehicle control still in growth phase
From the text: Histological samples from test subjects employed in the studies described in Example 12 were obtained for pathology assessment.

[2] = Pharmacokinetic assessment of mouse hair regrowth model; type: in vivo; conditions: mice, 0.03% dermal daily ~60 uL, all measured time points, LC/MS-MS
Protocol: Female C57BL/6J mice (n=2) were assayed per time point per treatment group. Treatment groups: (1) vehicle; (2) 0.03% Cmpd IVa; (3) 0.03% Cmpd IIIb; (4) 0.03% Cmpd IVb; (5) 0.03% bimatoprost. Treatment dosing: dermal daily application of ˜60 uL test compound solution. Blood and skin pharmacokinetic time points were obtained at day 1 (1, 4, 8 and 24-hrs post-dose); day 2 (24-hrs post-dose); day 14 (24-hrs post-dose); and day 42 (28 days post day 14 dose). Bioanalysis employed LC/MS-MS.

[3] = In vitro human skin penetration (Franz diffusion chamber); type: in vitro ADME; conditions: 0.03% in Formulation A, dosed compound
From the text: Test material: Dermatomed ex vivo human cadaver posterior trunk skin on 1.0 cm^2 Franz diffusion chamber as known in the art. Test size: 3 skin donors (obtained from New York Firefighters Skin Bank), 3 replicates per donor per formulation. Test formulations: 0.03% active agent (Cmpd IVa, Cmpd IIIb, Cmpd IVb) in Formulation A; control formulation: bimatoprost at 0.03% in Formulation A. Dosing regimen: receptor fluid at 2, 4, 24, and 48 hrs; SC/epidermis and dermis at 48 hrs. Sample analysis: LC/MS-MS to detect bimatoprost and Cmpds IVa, IIIb and IVb.

[4] = Partitioning in artificial sebum; type: physicochemical
Protocol: Compounds bimatoprost, Cmpd IVa, and Cmpd IIIb were added to aqueous solution (1 mL, 2-20 ug/mL), with and without 1-20 mg artificial sebum. Samples were shaken for 16 hr at 37° C. Samples were then centrifuged (8000 RPM) for 15 min at room temperature, prior to collection of the aqueous solution. Samples were analyzed for concentration of compound without artificial sebum (i.e., Co) and with artificial sebum (i.e., Ci) by mass spectroscopy. Artificial sebum and water partition coefficient (Ksebum) was expressed as the concentration of drug in 1 g of artificial sebum divided by the concentration of drug in 1 g of aqueous solution, and was calculated as Ksebum=(Co−Ci)Waqueous/(Ci×Wsebum) (Eqn. 1), where W represents weight.
Artificial sebum was prepared as follows: 15% (w/w) squalene, 15% spermaceti, 10% coconut oil, 1.5% oleic acid, 5% palmitic acid, 2.4% cholesterol oleate, 10% paraffin wax, 10% olive oil, 25% cottonseed oil, 5% palmitoleic acid, 1.2% cholesterol. The melting point of the semi-liquid was 37° C.

[5] = Compound distribution in mouse skin by MALDI-MS imaging; type: in vivo; conditions: topical dermal, once daily 3 days, 4 hr after day-3 dosing
Protocol: In order to determine the penetration, accumulation and/or differential distribution of bimatoprost and compounds disclosed herein upon dermal administration, MALDI-MS (matrix assisted laser desorption ionization mass spectroscopy) imaging was conducted on explanted samples of mouse skin after topical dermal administration.
MALDI-MS imaging was conducted on mouse skin strips after administration of bimatoprost or compound disclosed herein once daily for 3 days. Samples of mouse skin were recovered 4 hr after day-3 dosing of compound. Dermal administration was conducted with vehicle, 0.03% bimatoprost, 3% bimatoprost, 0.03% Cmpd IVa, and 3% Cmpd IVa.
FIG. 16A depicts a typical explanted sample of mouse skin for these studies, wherein Cmpd IVa was applied via dermal administration. FIG. 16B depicts the result of MALDI-MS imaging. The intensity of each pixel within FIG. 16B reflects the concentration of Cmpd IVa at the corresponding point in the image depicted in FIG. 16A. FIG. 16C depicts a representative mass spectrum, corresponding to the region of FIG. 16B indicated by the white circle within FIG. 16B. Accordingly, each pixel of the image of FIG. 16B has an associated mass spectrum, providing the amounts of bimatoprost or other administered compound or metabolite thereof.

For CCNC(=O)CCC/C=C\C[C@@H]1[C@@H](/C=C/[C@@H](O)CCc2ccccc2)[C@H](O)C[C@@H]1O [bimatoprost, (Z)-7-((1R,2R,3R,5S)-3,5-dihydroxy-2-((S,E)-3-hydroxy-5-phenylpent-1-enyl)cyclopentyl)-N-ethylhept-5-enamide], the “change in cell impedance” value [1] was “characteristic change in cell impedance”, the EC50 ([1]; cell impedance, tested range 10^−4 to 10^−13 mol/L) was 3.0 to 6.3×10^−7 mol/L and the “days for hair growth to commence (day of onset of hair growth)” value (C57Black/6J mice; FIG. 6A) was 22 days. The “days for full hair growth to be achieved” value (C57Black/6J mice; FIG. 6B) was 44 days, the “hair cycle phase at day-42” value (mouse skin) was “returned to the resting phase” and the “level in the systemic circulation” value [2] was “most undetectable”. For the same compound, the “Percentage Dose Applied, Receptor Chamber Solution, Prodrug” value ([3]; Franz chamber) was 1.1 Percentage Dose Applied, the “Percentage Dose Applied, Upper ⅓ Dermis, Prodrug” value ([3]; dermis at 48 hrs) was 7.0 Percentage Dose Applied and the “phase in which the majority of compound remains” value ([4]; artificial sebum / aqueous solution) was “remain in the aqueous phase”. The “Ave. Ksebum (artificial sebum and water partition coefficient)” value ([4]; n = 4, 16 hr at 37° C.) was 3.6 and the “levels of bimatoprost in skin after 3.0% bimatoprost versus after 3.0% Cmpd IVa” value [5] was “much higher”.
